Among the data in US8193189B2, “Quinoxaline derivatives as tyrosine kinase activity inhibitors” (Novartis AG, priority 2007, dated 2012) are IC50 values, retold here.

pIC50: −log10 of the molar value.

Experiment [1] concerns the target T1, GST-JAK1(866-1154) (Homo sapiens, UniProt P23458).
T1 construct: GST-JAK1(866-1154); made in house
Briefly: EPK JAK-family kinases profiling assay (Caliper mobility shift), JAK1. Conditions: ATP 40 μM, 50 nM kinase. The experiment is classed as biochemical. Put shortly:
(§1)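 Turnover was read as substrate/product ratio after mobility-shift capillary-like separation of each reaction, run for 60 min at 30 °C with GST-tagged kinase domain, labelled peptide and ATP, and terminated with EDTA stop buffer.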

Experiment [2] deals with T2, GST-JAK2(808-1132) (Homo sapiens, UniProt O60674).
T2 construct: GST-JAK2(808-1132); purchased Invitrogen (Carlsbad, USA) #4288
Kind of experiment: EPK JAK-family kinases profiling assay (Caliper mobility shift), JAK2. The experiment is classed as biochemical. As to conditions: ATP 20 μM, 1.8 nM kinase. Put shortly: as §1

Experiment [3] addresses T3, GST-JAK3(811-1124) (Homo sapiens, UniProt P52333).
T3 construct: GST-JAK3(811-1124); made in house
Kind of experiment: EPK JAK-family kinases profiling assay (Caliper mobility shift), JAK3. Format: biochemical. As to conditions: ATP 80 μM, 6 nM kinase. Put shortly: as §1

In experiment [4] the target is T4, GST-TYK2(888-1187) (Homo sapiens, UniProt P29597).
T4 construct: GST-TYK2(888-1187); made in house
T4 sequence (P29597 888-1187): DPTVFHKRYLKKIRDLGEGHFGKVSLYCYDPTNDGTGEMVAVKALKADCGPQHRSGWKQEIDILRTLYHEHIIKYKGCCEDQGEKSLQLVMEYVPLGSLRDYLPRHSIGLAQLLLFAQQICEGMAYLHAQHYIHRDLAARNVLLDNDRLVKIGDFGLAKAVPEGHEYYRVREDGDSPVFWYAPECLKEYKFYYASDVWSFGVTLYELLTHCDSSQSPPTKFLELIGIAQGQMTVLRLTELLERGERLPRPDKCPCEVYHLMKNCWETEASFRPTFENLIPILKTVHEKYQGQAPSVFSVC
Kind of experiment: EPK JAK-family kinases profiling assay (Caliper mobility shift), TYK2. Format: biochemical. Conditions: ATP 30 μM, 40 nM kinase. In short, it runs like this:
as §1

Experiment [5] has as its system JAK/STAT pathway (JAK1/JAK2-dependent nuclear translocation of STAT1-GFP). Briefly: Inhibition of the JAK/STAT pathway: IFN-γ stimulated nuclear translocation of STAT1-GFP in HT1080 fibrosarcoma cells. The experiment is classed as cell-based. Conditions: Homo sapiens, HT-1080; HT1080 STAT1-GFP cells, 100 ng/ml IFN-γ 2 hours, compound added 30 min before; read-out: STAT1translo IC50. In short, it runs like this:
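Readout is the nuclear-minus-cytoplasmic GFP-STAT1 intensity, imaged at 10× using Hoechst-defined nuclear masks over at least 1000 cells/well. Stably transfected HT1080 fibrosarcoma cells were pretreated 30 min with compound (final 0.003–10 μM, 0.1% DMSO) before IFN-γ challenge.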

T2 sequence (O60674 808-1132): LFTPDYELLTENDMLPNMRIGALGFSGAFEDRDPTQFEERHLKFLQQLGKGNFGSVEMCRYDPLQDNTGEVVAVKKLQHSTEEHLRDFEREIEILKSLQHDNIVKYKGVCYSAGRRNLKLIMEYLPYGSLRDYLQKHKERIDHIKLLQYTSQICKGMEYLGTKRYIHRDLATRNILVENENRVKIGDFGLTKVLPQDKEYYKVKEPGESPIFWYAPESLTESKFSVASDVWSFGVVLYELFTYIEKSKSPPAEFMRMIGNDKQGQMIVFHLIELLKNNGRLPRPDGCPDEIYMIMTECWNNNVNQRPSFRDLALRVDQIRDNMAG
T3 sequence (P52333 811-1124): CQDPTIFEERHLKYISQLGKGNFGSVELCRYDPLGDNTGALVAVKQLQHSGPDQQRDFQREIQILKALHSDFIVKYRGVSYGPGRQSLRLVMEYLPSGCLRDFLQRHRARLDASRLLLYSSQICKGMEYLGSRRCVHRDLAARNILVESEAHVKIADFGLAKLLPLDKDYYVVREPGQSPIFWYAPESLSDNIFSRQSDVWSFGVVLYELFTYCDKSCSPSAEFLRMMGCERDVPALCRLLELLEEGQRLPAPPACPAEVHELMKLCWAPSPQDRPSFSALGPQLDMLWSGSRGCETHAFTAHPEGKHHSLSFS
T1 sequence (P23458 866-1154): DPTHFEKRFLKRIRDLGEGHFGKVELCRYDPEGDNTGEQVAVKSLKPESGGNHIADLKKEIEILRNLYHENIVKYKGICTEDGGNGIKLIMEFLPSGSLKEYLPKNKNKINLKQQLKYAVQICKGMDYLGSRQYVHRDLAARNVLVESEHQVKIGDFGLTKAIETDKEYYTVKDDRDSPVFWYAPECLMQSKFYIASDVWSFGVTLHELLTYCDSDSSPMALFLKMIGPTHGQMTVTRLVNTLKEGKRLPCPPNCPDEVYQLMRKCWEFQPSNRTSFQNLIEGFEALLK

For the compound `CN(C)CCN(C)C(=O)c1ccc(-c2cnc3cccc(-c4cc(F)c(CN5CCOCC5)c(F)c4)c3n2)cn1` [Example 110, 5-[8-(3,5-Difluoro-4-morpholin-4-ylmethyl-phenyl)-quinoxalin-2-yl]-pyridine-2-carboxylic acid (2-dimethylamino-ethyl)-methyl-amide], the pIC50 is 5.26 in experiment [1]; 6.24 in experiment [2]; less than 5.00 in experiment [3]; 5.03 in experiment [4]; 5.80 in experiment [5].

Take `COc1cc(-c2cnc3cccc(-c4ccc(CC(=O)N5CCOCC5)cc4)c3n2)ccc1OCCN1CCOCC1` [Example 34, 2-(4-{3-[3-Methoxy-4-(2-morpholin-4-yl-ethoxy)-phenyl]-quinoxalin-5-yl}-phenyl)-1-morpholin-4-yl-ethanone]: the pIC50 in experiment [1] is 7.57; in experiment [2], 8.39; in experiment [3], 6.31; in experiment [4], 7.06; in experiment [5], 6.47.

Turning to `Cc1cc(-c2cccc3ncc(-c4ccc(C(=O)N5CCN(C)CC5)c(C)c4)nc23)ccc1CN1CCS(=O)(=O)CC1` [Example 43, (4-{8-[4-(1,1-Dioxido-thiomorpholin-4-ylmethyl)-3-methyl-phenyl]-quinoxalin-2-yl}-2-methyl-phenyl)-(4-methyl-piperazin-1-yl)-methanone], the pIC50 in experiment [1] was 6.38; in experiment [2], 7.57; in experiment [3] it was 6.06; in experiment [4] it was 6.15; in experiment [5] it was 5.95.

Turning to `COc1cc(-c2cnc3cccc(-c4cc(F)c(CN5CCOCC5)c(F)c4)c3n2)ccc1OCCCN1CCOCC1` [Example 84, 8-(3,5-Difluoro-4-morpholin-4-ylmethyl-phenyl)-2-[3-methoxy-4-(3-morpholin-4-yl-propoxy)-phenyl]-quinoxaline], the negative logarithm of the IC50 (pIC50) is 7.23 in experiment [1]; 8.26 in experiment [2]; 6.01 in experiment [3]; 6.57 in experiment [4]; 5.84 in experiment [5].

In the case of `COc1cc(-c2cnc3cccc(-c4ccc(C(=O)N5CCOCC5)c(F)c4)c3n2)ccc1OCCN1CCOCC1` [Example 35, (2-Fluoro-4-{3-[3-methoxy-4-(2-morpholin-4-yl-ethoxy)-phenyl]-quinoxalin-5-yl}-phenyl)-morpholin-4-yl-methanone], the pIC50 in experiment [1] was 7.03; in experiment [2], 7.92; in experiment [3] it was 5.73; in experiment [4] it was 6.28; in experiment [5] it was 5.76.

Consider `Cc1cc(-c2cnc3cccc(-c4cc(F)c(CN5CCOCC5)c(F)c4)c3n2)ccc1C(=O)N(C)CCN(C)C` [Example 94, 4-[8-(3,5-Difluoro-4-morpholin-4-ylmethyl-phenyl)-quinoxalin-2-yl]-N-(2-dimethylamino-ethyl)-2,N-dimethyl-benzamide], for which the pIC50 is 6.34 in experiment [1]; 7.57 in experiment [2]; 5.67 in experiment [3]; 6.01 in experiment [4]; 5.82 in experiment [5].

As for `COc1cc(-c2cnc3cccc(-c4ccc(C(=O)N5CCOCC5)c(C)c4)c3n2)ccc1N1CCN(C)CC1` [Example 105, (4-{3-[3-Methoxy-4-(4-methyl-piperazin-1-yl)-phenyl]-quinoxalin-5-yl}-2-methyl-phenyl)-morpholin-4-yl-methanone], the pIC50 in experiment [1] was 6.09; in experiment [2], 7.49; in experiment [3] it was 5.74; in experiment [4], 6.01; in experiment [5], 6.05.

One may read the pIC50 as the IC50 on a negative log10 scale, so that one unit is a factor of ten.
